Measurements reported in patent US20260315446A1, “ANTIFUNGAL COMPOUNDS AND USES THEREOF” (priority 2023, published 2026).

Assays:
[1] = system: Aspergillus fumigatus (akuBKu80 hFKBP12); test: MIC/MEC against humanized A. fumigatus strain; format: cell-based
Protocol: To confirm that JH-FK-05 was fungal FKBP12-dependent, a humanized A. fumigatus strain (the akuB^Ku80 hFKBP12 strain) expressing a codon-optimized human FKBP12 gene from the Affkbp12 native locus was utilized.
In vitro antifungal activities of FK506, FK520, and analogs were assessed in RPMI 1640 (Sigma-Aldrich) for all strains tested. MICs/minimum effective concentrations (MECs) for each drug were measured using modified Clinical and Laboratory Standards Institute (CLSI) M38-A2 and M27-A3 standard in vitro antifungal susceptibility protocols. Broth microdilution assays for MIC/MEC assessment were performed as described previously (see, Juvvadi P R, et al., 2019, Nat Commun 10:4275). All antifungal assays with C. neoformans were performed at 37° C. Antifungal susceptibility testing for C. albicans was performed in the presence of a uniform 1 μg/mL concentration of fluconazole to sensitize the organism to calcineurin inhibition.

C. neoformans H99 = test: Intranasal model of pulmonary cryptococcosis, lung fungal burden (Example 1); format: in vivo, Cryptococcus neoformans in A/J mice; settings: day 14; JH-FK-05 60 mg/kg, fluconazole 12 mg/kg, i.p. daily
Protocol: First, in the intranasal model, animals were anesthetized and infected with 10^5 cells of wild-type H99 C. neoformans via instillation in the animal's nares. These animals were monitored for 14 days and then sacrificed. This model tests the efficacy of JH-FK-05 to treat a pulmonary infection, which is the most common manifestation of early-stage cryptococcosis in patients. […] In both models, animals were treated once daily via i.p. injection beginning 3 h after infection with either vehicle, 60 mg/kg JH-FK-05, 12 mg/kg fluconazole, or a combination of the two monotherapies.
Wild-type H99 C. neoformans cells were grown overnight at 30° C. in a roller drum in yeast extract-peptone-dextrose (YPD) medium. […] H99 cells were counted with a hemacytometer and diluted to 2×10^6 cells/mL in PBS for the pulmonary model and 2×10^5 cells/mL in PBS for the disseminated model.
Female A/J mice (3 to 4 weeks old; Jackson Laboratory) were anesthetized utilizing an isoflurane chamber. […] After 14 days, animals were either sacrificed for fungal burden analysis or monitored for health and survival until reaching a humane endpoint.
Mice were euthanized by CO2 inhalation at the predetermined experimental endpoint. […] A 100-μL aliquot of each dilution was plated on antibiotic plates (YPD, 50 μg/mL ampicillin, and 30 g/mL chloramphenicol), incubated for 48 to 72 h at 30° C., and assessed for CFU. […]

C. neoformans strain H99 = test: Murine cryptococcal infection, spleen fungal burden (Example 3); format: in vivo, Cryptococcus neoformans in A/J mice; settings: 14 days; fluconazole 6 mg/kg, JH-FK-08 40 mg/kg, i.p. twice per day
Protocol: In vivo antifungal activity and therapeutic benefit were assayed by investigating the impact of the FK520 analog on organ fungal burden during cryptococcosis. Specifically, the in vivo efficacy of JH-FK-08 on fungal burden was assessed using A/J female mice. Immunodeficient A/J mice were selected in part due to their defect in complement component five and their susceptibility to cryptococcal infection. Treatment groups included vehicle of 10% Kolliphor: ethanol (1:1) in phosphate-buffered saline (PBS), 6 mg/kg fluconazole, 40 mg/kg JH-FK-08, or the fluconazole and JH-FK-08 combination, all given via intraperitoneal (i.p.) injection twice per day beginning at 4 hours post infection. […] Mice were intranasally infected with C. neoformans strain H99, and fungal burden in the lung, spleen, and brain was assessed after 14 days of treatment.
C. neoformans inoculum was prepared by growing a 5-mL overnight YPD culture spinning in a tissue culture roller drum at 30° C. Cells were pelleted by centrifugation and washed in sterile PBS three times. Cell density was determined by hemocytometer, and cells were diluted to 2×10^6 cells/mL. Mice (10 to 20 g) were infected with 10^5 cells of C. neoformans H99. […] Following inhalation of the inoculum, animals were monitored for post anesthesia recovery. […] Fungal burden was assessed 24 h after the final dose. […]

[2] = In vivo tolerability of JH-FK-08; set-up: species or system mouse (A/J); settings: 40 mg/kg once daily, 14 days
Protocol: FIG. 14: In vivo tolerability of JH-FK-08. Maximum tolerated dose study of female A/J mice (n=3). Animals received once daily (A) and twice daily (B) dosing, and weight over time was plotted as percent change from initial body weight.
Based on the in vitro fungal and mammalian calcineurin inhibition data, the panel of FK520 analogs was assessed and ranked. Therapeutic index (TI) scores were used to quantify the effects of structural modification on the compounds (Table 8). Therapeutic index scores were calculated for each analog as the ratio of relative change in immunosuppressive and antifungal activities compared to FK506 as previously utilized (see, I-Toy M J, et at. 2022. mBio 13:e0104922). This ratio of therapeutic benefit and host toxicity, or fungal and mammalian calcineurin inhibition, allowed us to quantify and rank these analogs. […] This is the greatest TI found within the library and allowed us to identify JH-FK-08 as a lead candidate for an in vivo study. Tolerability of JH-FK-08 was assessed by monitoring animal responses to drug dosing across 14 days, including changes in weight, fur condition, and behavior. A maximum dose of 40 mg/kg was tested in once a day dosing, and due to solubility limitations, the tolerability of JH-FK-08 at 60 and 80 mg/kg total daily doses was assessed by dosing two equal doses per day (FIG. 14). […]

[3] = system: IL-2 expression in primary mouse CD4+ T cells (mammalian calcineurin); settings: previous studies; cited from earlier work

## CC[C@@H]1/C=C(\C)C[C@H](C)C[C@H](OC)[C@H]2O[C@@](O)(C(=O)C(=O)N3CCCC[C@H]3C(=O)O[C@H](/C(C)=C/[C@@H]3CC[C@@H](O)[C@H](OC)C3)[C@H](C)[C@@H](O)C/C1=N/NC(C)=O)[C@H](C)C[C@@H]2OC [JH-FK-05]
[1]
  antifungal activity against hFKBP12-expressing A. fumigatus strain: no detectable antifungal activity
[1]; strain akuBKu80 hFKBP12
  MIC/MEC: >8 µg/mL
C. neoformans H99
  reduction of lung fungal burden: ~10 fold

## CC[C@@H]1/C=C(\C)C[C@H](C)C[C@H](OC)[C@H]2O[C@@](O)(C(=O)C(=O)N3CCCC[C@H]3C(=O)O[C@H](/C(C)=C/C3CC[C@@H](O)[C@H](OC)C3)[C@H](C)[C@@H](O)C/C1=N/NC(=O)OC)[C@H](C)C[C@@H]2OC (stereo partly shown) [JH-FK-08]
C. neoformans strain H99
  spleen fungal burden: no detectable fungal burden
[2]; 60 and 80 mg/kg total daily in two equal doses
  tolerability: Animals tolerated all dosages
[2]; 60 and 80 mg/kg total daily
  weight difference from vehicle-treated animals: ≤ 10%

## C=CCC1C=C(C)CC(C)CC(OC)C2OC(O)(C(=O)C(=O)N3CCCCC3C(=O)OC(C(C)=CC3CCC(O)C(OC)C3)C(C)C(O)CC1=O)C(C)CC2OC (stereo not shown) [FK506, reference compound]
[3]
  effect on T cells: cytotoxic and reduce the proliferation of T cells
